pIC50: −log10 of the molar value. “Also recorded” adds a separate entry of the source.
Assays:
[1] = test system: rat aortic rings; test: Conversion of 3H-corticosterone to 11-dehydrocorticosterone by aortic rings; format: cell-based; conditions: 3H-corticosterone 10 nM, antisense 3 μM, 24 hrs, compared with nonsense oligomers
Protocol: (§1) The effects of 11β-HSD1 and 11β-HSD2 antisense on the inter-conversion of ^3H-corticosterone and ^3H-11-dehydro-corticosterone by aortic rings was also determined. Rings (2-3 mm) obtained in a similar manner as those in the contraction studies, were incubated in 1 ml DMEM/F12 media containing 1% FBS at 37° C. under 95% O2-5% CO2 in 24-well culture plates. Rings were incubated for 24 hours with:
(i) ^3H-corticosterone (10 nmol/L)±11β-HSD2 or 11β-HSD1 antisense (3 μmol/L); control groups received nonsense oligomers. The amount of ^3H-11-dehydro-corticqsterone in the incubation medium after 24 hrs was then measured. The effects of 11β-HSD1 antisense/nonsense were measured in quadruplicate (n=6 aortic rings per well) and the effects of 11β-HSD2 antisense/nonsense in duplicate (n=8 aortic rings per well),
Incubation media was collected, ran through a Sep-Pak and eluted with 3 mls of methanol, the eluate was then dried under nitrogen and reconstituted in 500:1 methanol. The aortic rings were dried and weighed. The steroids present in the eluate were separated by high-pressure liquid chromatography with a Dupont Zorbax C8 column eluted at 44° C. at a flow rate of 1 mL/min using 55% methanol for 10 minutes. Steroids were observed by monitoring radioactivity on-line with a Packard Radiomatic Flo-One/Beta Series A-500 counter connected to a Dell Optiflex 425 S/L computer. […]

[2] = test system: cultured rat vascular endothelial and smooth muscle cells; test: RT-PCR analysis of 11β-HSD isoform expression in cultured cells; format: cell-based; conditions: similar protocol
Source text: Since 11β-HSD2 appears to exist only in endothelial cells, this observation supports a role for the action of glucocorticoids in affecting endothelial cell function. […] Further experiments to determine whether antisense oligomers down-regulate mRNA and protein expression of their respective 11β-HSD isoform under conditions in which they enhance contractile responses in aortic rings will be done.

[3] = target: T1, 11β-HSD1-reductase activity (Rattus norvegicus, UniProt P16232); test: Metabolism of 3H-11-dehydrocorticosterone back to corticosterone by aortic rings; format: cell-based; conditions: 24 hours, compared with nonsense oligomers
T1 construct: from tissue; host or cells: rat aortic rings (intact tissue, 24 h incubation)
T1 sequence (P16232 whole entry): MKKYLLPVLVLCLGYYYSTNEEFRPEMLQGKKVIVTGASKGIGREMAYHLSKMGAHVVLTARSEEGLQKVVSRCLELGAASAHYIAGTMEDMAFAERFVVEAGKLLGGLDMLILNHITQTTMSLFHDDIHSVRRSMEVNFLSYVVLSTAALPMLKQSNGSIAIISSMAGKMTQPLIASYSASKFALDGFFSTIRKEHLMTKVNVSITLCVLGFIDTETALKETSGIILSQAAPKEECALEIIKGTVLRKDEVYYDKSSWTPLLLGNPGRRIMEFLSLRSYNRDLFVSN
Protocol: as §1
(ii) ^3H-11β-dehydro-corticosterone (10 nmol/L)±11β-HSD1 antisense (3 μmol/L); this experiment was performed in duplicate (n=10 aortic rings per well). Control groups were incubated with the appropriate nonsense oligomer. ^3H-corticosterone in the incubation medium after 24 hrs was then measured. In this experiment, aortic rings were also analyzed for ^3H-corticosterone content. Rings from duplicate incubations (total n=20) were blotted dry, pooled and homogenized in 50% methanol using a Polytron. The homogenates were then centrifuged, extracted as below using Sep-Paks and injected onto a HPLC system for analysis.
Incubation media was collected, ran through a Sep-Pak and eluted with 3 mls of methanol, the eluate was then dried under nitrogen and reconstituted in 500:1 methanol. The aortic rings were dried and weighed. […] Steroids were observed by monitoring radioactivity on-line with a Packard Radiomatic Flo-One/Beta Series A-500 counter connected to a Dell Optiflex 425 S/L computer. […]

[4] = test system: rat aortic rings; test: Contractile response of rat aortic rings to phenylephrine; format: cell-based; conditions: 24 h; for effect on the ability of 11-dehydro-corticosterone to amplify the contractile response to phenylephrine: 11-dehydro-corticosterone 100 nmol/L, antisense 3 μmol/L vs nonsense; for contractile response to phenylephrine of rings incubated with corticosterone and antisense: corticosterone 10 nmol/L + antisense 3 μmol/L, compared with nonsense oligomers
Protocol: Male Sprague-Dawley (150-200 g) rats were anesthetized with pentobarbital (50 mg/kg IP), and a median sternotomy was performed followed by the rapid removal of the thoracic aorta. The adventitia was removed, but the endothelium was left intact. The aorta was cut into 2-3 mm rings and individual rings were placed into a single well of a twenty four well culture plate and incubated at 37° C. under 95% 02-5% CO2. Each well contained 1 mL of DMEM/F12 containing 1% fetal bovine serum, streptomycin (100 μg/ml), penicillin (100 units/ml) and amphotericin (0.25 μg/ml). Aortic rings were incubated for 24 hours prior to contractility measurements with the following combinations of steroids, and antisense/nonsense oligonucleotides (3 μmol/L):
Antisense phosphorothioate oligonucleotides, targeted to block either 11β-HSD2 or 11β-HSD1 gene expression, were obtained from Research Genetics, Huntsville Ala. Antisense oligomers complementary to 20 bp sequences spanning the ribosome binding/translation start site were used. Oligomer sequences were: 5′-CATAACTGCCGTCCAACAGC-3′ (SEQ ID NO. 1) for 11β-HSD1 Antisense and 5′-AGGCCAGCGCTCCATGACTT-3′ (SEQ ID NO 2) for 11β-HSD2 antisense. In control experiments the corresponding sense sequence was used as the nonsense oligomer. Antisense and nonsense oligomers were added directly to each well at 20 μg/10:1 sterile H2O per well for a final concentration of 3 μmol/L.
For contraction measurements, aortic rings were suspended by tungsten wires with 1 g of tension and placed in a vessel bath containing serum free DMEM/F12 media at 37° C. aerated with 95% O2-5% CO2, at pH 7.4. Vessels were equilibrated for 20 minutes and then tested with phenylephrine (1 nmol/L-10 μmol/L). Although phenylephrine is structurally not a catecholamine, it is considered to be a functional catecholamine as it activates both a and P adrenoceptors. Due to its favorable stability characteristics, it is widely used as a catecholamine substitute in experiments of this nature. The intensity of contraction was assessed by use of a Narishige micromanipulator and model FT03 force transducer (Grass Instrument Co. West Warwick, R.I.). Measurements were recorded on computer using the Labview 4.1 Virtual Instrument System (National Instruments, Austin, Tex.).

[5] = target: T2, 11β-HSD1 Dehydrogenase (Rattus norvegicus, UniProt P16232); test: 11β-HSD1 dehydrogenase assay in rat Leydig cell homogenates; format: biochemical; set-up: Freshly prepared rat Leydig cell homogenates were chosen since they provide a rich and reliable source of both 11β-HSD1 dehydrogenase and reductase; from tissue; host or cells: rat testicular Leydig cells, homogenate; conditions: for Leydig Cell 11β-HSDl Dehydrogenase [S] = 600 nM: rat Leydig cell homogenates, 600 nM corticosterone, progesterone and androgen derivatives;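 as to all read-outs here: tritiated corticosterone conversion by 11β-HSD1 dehydrogenase in Leydig homogenates with 3 mM NADP at pH 8.4, 37 °C for 10 min, products resolved by HPLC, inhibition relative to uninhibited enzyme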
T2 sequence (P16232 whole entry): as the sequence (P16232 whole entry) above
Protocol: (§2) Each enzyme reaction (described below) was stopped by adding 750 μL MeOH. After centrifugation, an aliquot of supernatant was analyzed by HPLC using a DuPont Zorbax C8 column.
(§3) 11β-HSD1 dehydrogenase was assayed by incubating homogenates (13,000 cells equivalent) with 600 nM [^3H]-B (0.5 μCi) in the presence of 3 mM NADP, 50 mM Tris-HCl; pH 8.4 at 37° C. for 10 minutes in a total volume of 250 μL. 11β-HSD1 reductase was assayed by incubating homogenates (52,000 cells equivalent) with 600 nM [^3H]-11-dehydro-corticosterone in presence of 3 mM NADPH, 50 mM Tris-HCl; pH 7.4 at 37° C. for 20 minutes in a total volume of 250 μL.
(§4) Each concentration was tested in triplicate and the dose response curve, showing percentage inhibition versus log concentration of steroid was plotted. The data fitted a log-linear straight line.

[6] = target: T3, 11β-HSD1 Reductase (Rattus norvegicus, UniProt P16232); test: 11β-HSD1 reductase assay in rat Leydig cell homogenates; conditions: for inhibitors of 11β-HSD1 reductase (summary in words): summary of the screening;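 as to all read-outs here: rat Leydig cell homogenate incubated 20 min at 37 °C, pH 7.4, with tritiated 11-dehydro-corticosterone and 3 mM NADPH, product measured by HPLC, inhibition from triplicate dose–response curves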
T3 sequence (P16232 whole entry): as the sequence (P16232 whole entry) above
Protocol: as §2, §3, §4

[7] = target: T4, 11β-HSD2 Dehydrogenase (Ovis aries, UniProt P50168); test: Table 1: inhibition of 11β-HSD2 dehydrogenase; format: biochemical; conditions: Table 1, inhibition in words
T4 sequence (P50168 1-427): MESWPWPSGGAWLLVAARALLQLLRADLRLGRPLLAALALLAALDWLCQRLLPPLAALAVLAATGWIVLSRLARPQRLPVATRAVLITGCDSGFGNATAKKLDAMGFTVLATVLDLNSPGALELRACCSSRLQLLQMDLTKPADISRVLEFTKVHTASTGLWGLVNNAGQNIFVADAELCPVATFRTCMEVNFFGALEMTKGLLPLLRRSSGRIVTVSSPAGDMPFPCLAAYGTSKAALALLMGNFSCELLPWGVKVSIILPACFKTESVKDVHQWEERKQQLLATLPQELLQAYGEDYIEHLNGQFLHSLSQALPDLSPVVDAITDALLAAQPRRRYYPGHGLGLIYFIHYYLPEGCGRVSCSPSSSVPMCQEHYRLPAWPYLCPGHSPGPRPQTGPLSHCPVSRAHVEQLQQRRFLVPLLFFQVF

[8] = target: T2, 11β-HSD1 Dehydrogenase; test: Table 1: inhibition of 11β-HSD1 dehydrogenase; format: biochemical; conditions: Table 1, inhibition in words
[9] = target: T5, 11β-HSD2 (Ovis aries, UniProt P50168); test: 11β-HSD2 enzyme activity in sheep kidney microsomes; format: biochemical
T5 construct: incubating sheep kidney microsomal fraction (6.5 μg protein) with 50 nM corticosterone; from tissue; host or cells: sheep kidney microsomal fraction
T5 sequence (P50168 1-427): T4 sequence (P50168 1-427)
Source text: The enzymatic reaction was termninated by addition of methanol and synthesis of 11-dehydro-corticosterone was quantitated by HPLC as described above.

[10] = target: T3, 11β-HSD1 Reductase; test: Table 1: inhibition of 11β-HSD1 reductase; format: biochemical; conditions: Table 1, inhibition in words
[11] = target: T6, 11β-HSD2 (Homo sapiens, UniProt P80365); conditions: Monder et al., 1993; Pearson Murphy et al., 1981; cited from earlier work
T6 sequence (P80365 1-405): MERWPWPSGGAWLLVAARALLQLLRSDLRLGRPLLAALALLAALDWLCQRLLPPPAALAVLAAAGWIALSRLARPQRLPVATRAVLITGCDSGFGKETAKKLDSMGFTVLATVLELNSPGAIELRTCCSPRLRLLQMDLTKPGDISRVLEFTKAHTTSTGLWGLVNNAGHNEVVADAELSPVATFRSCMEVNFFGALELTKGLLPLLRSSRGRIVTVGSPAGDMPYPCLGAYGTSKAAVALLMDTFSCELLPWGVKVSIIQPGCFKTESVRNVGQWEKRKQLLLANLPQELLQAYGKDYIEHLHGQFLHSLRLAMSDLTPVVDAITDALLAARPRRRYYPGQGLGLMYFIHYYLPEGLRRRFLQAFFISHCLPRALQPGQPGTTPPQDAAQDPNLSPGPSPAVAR

[12] = target: 11β-HSD1 (Homo sapiens, UniProt P28845); conditions: Monder et al., 1993; Pearson Murphy et al., 1981; cited from earlier work
11β-HSD1, sequence (P28845 whole entry, species assumed): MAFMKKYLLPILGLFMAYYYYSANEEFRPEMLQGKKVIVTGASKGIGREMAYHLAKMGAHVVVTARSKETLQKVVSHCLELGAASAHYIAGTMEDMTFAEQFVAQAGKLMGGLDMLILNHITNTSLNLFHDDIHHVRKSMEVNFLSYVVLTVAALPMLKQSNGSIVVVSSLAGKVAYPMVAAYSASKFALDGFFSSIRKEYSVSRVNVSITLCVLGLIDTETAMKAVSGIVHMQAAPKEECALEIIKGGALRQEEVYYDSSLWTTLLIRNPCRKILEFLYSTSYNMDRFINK

[13] = listed as 11β-HSD1 antisense oligomers

Compound	reduction in the conversion of corticosterone to 11-dehydrocorticosterone [1] [%]	expression of the respective 11β-HSD enzyme isoform [2]	production of 3H-corticosterone from 3H-11-dehydrocorticosterone [3]	effect on the ability of 11-dehydro-corticosterone to amplify the contractile response to phenylephrine [4]	contractile response to phenylephrine of rings incubated with corticosterone and antisense [4]	pIC50 [5]	Leydig Cell 11β-HSDl Dehydrogenase [S] = 600 nM [5]	pIC50 [6]	pIC50 [9]	further results
5′-CATAACTGCCGTCCAACAGC-3′ (antisense CATAACTGCCGTCCAACAGC; all phosphorothioate, sugars by position and methylation of C not given here) [11β-HSD1 antisense]	21	down-regulate the expression	significantly reduce; also recorded: markedly reduced; also recorded: marked decrease	significantly attenuated	significantly increased	–	–	–	–	effect on the ability of 11-dehydro-corticosterone to amplify the contractile response to phenylephrine ([4]; listed as 11β-HSD1 antisense oligomer): attenuates; effect on the ability of 11-dehydro-corticosterone to amplify the contractile response to phenylephrine [4, 13]: attenuated; contractile response to phenylephrine of rings incubated with corticosterone and antisense [4, 13]: enhanced the ability of corticosterone to amplify the contractile response
5′-AGGCCAGCGCTCCATGACTT-3′ (antisense AGGCCAGCGCTCCATGACTT; all phosphorothioate, sugars by position and methylation of C not given here) [11β-HSD2 antisense]	24	down-regulate the expression	–	–	statistically significant increase; also recorded: significantly (P<0.05) increased	–	–	–	–	–
CC(=O)[C@H]1CC[C@@H]2[C@@H]3CCC4=CC(=O)CC[C@]4(C)[C@@H]3C(=O)C[C@]12C (stereo in doubt) [11 -Keto-Progesterone, 4-Pregnen-3,11,20-trione]	–	–	decreased the metabolism	diminished	–	< 4.00	inactive	5.02	6.40	inhibitors of 11β-HSD1 reductase (summary in words) ([6]; listed as 11-Keto-Progesterone): potent inhibitors; inhibitors of 11β-HSD1 reductase (summary in words) ([6]; listed as 11-keto-progesterone): high potency; 11β-HSD2 Dehydrogenase [7]: Potent Inhibitor; 11β-HSD1 Dehydrogenase [8]: No Inhibition; inhibitors of 11β-HSD2 (summary in words) ([9]; summary of the screening, listed as 11-keto-progesterone): potent inhibitors; also recorded: high potency; 11β-HSD1 Reductase [10]: Selective Inhibitor
C[C@]12CCC(=O)C=C1CC[C@@H]1[C@@H]2[C@@H](O)C[C@]2(C)C(=O)CC[C@@H]12 [11β-OH-Androstenedione, 4-Androsten-11β-ol-3,17-dione]	–	–	–	–	–	< 4.00	inactive	< 4.00	5.11	inhibition of 11β-HSD2 isoform [11]: poor inhibitor; inhibition of 11β-HSD1 isoform [12]: poor inhibitor; Sheep kidney 11β-HSD2 [S] = 50 nM ([9]; sheep kidney microsomes, corticosterone substrate, progesterone and androgen derivatives): weak inhibitor

— patent US20070093460A1, “Methods of using selective 11beta-HSD inhibitors to treat gluocorticoid associated states” (priority 2005, published 2007)
